Measurements from patent publication US7939098B2, “Compositions and method for transmucosal drug delivery and cryoprotection” (Femina Pharma Incorporated, priority 2002, dated 2011).

Columns and labels:
healthy female rabbits = details: rabbit, in vivo
Description: A 10 day, repeat dose, vaginal toxicity study was conducted in healthy female rabbits. Three doses and two controls were used. […] Doses of SUPPOCIRE® and SUPPOCIRE® plus ethoxydiglycol were used as controls. The study findings are summarized below.

[1] = essentially the same amount as i.v.; cited from earlier work
porcine buccal mucosa = experiment: Transepithelial transport of [3H]water across porcine buccal mucosa in vitro, continuous flow apparatus; type: in vitro ADME
Description: (§1) Porcine buccal and nasal mucosa (lateral) was obtained at slaughter and utilized within 3 hours of harvest. Tissue samples approximately 8 mm in diameter were mounted between two halves of through-flow mucosal perfusion cells exposing an area of epithelial surface approximately 0.20 cm^2 for transepithelial transport. The chambers were mounted on water-jacketed blocks maintained at 37° C. During the set up period, the exposed epithelial surface was kept moist with phosphate buffered saline (PBS, 0.01M, pH 7.4). The buffer solution was removed by vacuum immediately prior to application of labeled test compound. […] In the receiver compartment, PBS was continuously pumped through the lower chamber (i.e., blood compartment) as a collection fluid at rate of 1.8 mL/hr, which was previously determined to be sufficient to maintain sink conditions in the receiver compartment. This fluid was collected into scintillation vials for 1 or 2 hour intervals over the entire collection period and radioactivity was determined by liquid scintillation counter. Transepithelial flux of the marker solute in the presence of various concentrations of permeation enhancers was calculated at each sampling interval from the relationship: Flux=Q/At where Q is the finite quantity of solute traversing the tissue barrier (dpm) in time t (min); A is the area of epithelial surface exposed in cm^2. […]

porcine nasal mucosa = experiment: Transepithelial transport of [3H]water across porcine nasal mucosa in vitro, continuous flow apparatus; type: in vitro ADME
Description: as §1

| mean steady state Kp of [3H]water (porcine buccal mucosa; in the presence of 30% (v/v) TRANSCUTOL, n=7) | mean steady state Kp of [3H]water (porcine nasal mucosa; in the presence of 15% (v/v) TRANSCUTOL, n=7) | SMILES | NOEL (healthy female rabbits; female, 10 days) [mg/3 kg rabbit dose] | NOEL, equivalent human dose (healthy female rabbits; female, 10 days) [mg] | finding on cervix or uterus (healthy female rabbits) | one-time human dose extrapolated to be safe (healthy female rabbits) [mg] | systemic side effects (healthy female rabbits) | systemic level after oral administration compared to i.v. administration [1] | increase of mean steady state Kp as compared to control (porcine buccal mucosa; 30% (v/v) TRANSCUTOL versus control) [%] | increase of mean steady state Kp compared to control PBS (porcine nasal mucosa; 15% (v/v) TRANSCUTOL versus control PBS) [%] |
| --- | --- | --- | --- | --- | --- | --- | --- | --- | --- | --- |
| – | – | NCCCC(O)(P(=O)(O)O)P(=O)(O)O [alendronate] | 0.013 | 0.3 | No erythema, inflammation or erosion | 10 | no systemic side effects | below 1% | – | – |
| 1.11±0.01×10^−3 cm/min | 1.83±0.02×10^−3 cm/min | CCOCCOCCO [TRANSCUTOL®, diethyleneglycol monoethyl ether] | – | – | – | – | – | – | ~25 | ~37 |
